Columns and labels:
ATF4 = ATF4 expression inhibition assay (ATF4 5'UTR luciferase reporter, Tg-stressed HEK293T cells); type: cell-based, human; settings: Homo sapiens, HEK-293T, 3 h, 100 nM thapsigargin, 3 hours, HEK293T ATF4 luciferase reporter
Outline: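 HEK293T stably expressing luciferase fused downstream of human full-length ATF4 5′UTR, stressed with 100 nM thapsigargin plus compound (100 nM or 1 μM; IC50 series 0.1 nM to 1 μM) for 3 h at 37° C. Luminescence normalized to Tg alone (0%) and untreated cells (100% inhibition).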

CHO cells = assay: Protein production by transient gene expression (GFP in CHO cells); type: cell-based, Chinese hamster; settings: pIRES2-AcGFP1, 1 μM or 5 μM, 24 hours (FIGS. 12A, 12B)
Experimental: CHO cells were maintained at 37° C. and 5% CO2 in DMEM supplemented with 10% fetal bovine serum (FBS), 2 mM L-glutamine, 100 U/ml penicillin, and 100 μg/ml streptomycin. After reaching 80% of confluence, cells were detached and seeded on 6-well plates in complete media and allowed to recover for 48 h. Cells were then washed three times with PBS and transfected with 1 μg of plasmid pIRES2-AcGFP1 (Clonetech 632435) using Lipofectamine LTX (Thermofisher Scientific) according to manufacturer instructions. Transfection media was supplemented with culture medium alone (vehicle) or 1 μM or 5 μM compound 58 in culture medium.
After 24 hours treatment, culture media were removed and cells were lysed with SDS-PAGE lysis buffer. Lysates were transferred to 1.5 ml tubes and sonicated for 3 min. Total protein amount was quantified using BCA Protein Assay Kit (Pierce). Equal amount of proteins (30 μg) was loaded on SDS-PAGE gels. […]
GFP (cell Signaling) and β-actin (Sigma-Aldrich) antibodies were used as primary antibodies. […] Quantification of protein bands was done by densitometry using ImageJ software.
The levels were normalized to β-actin expression and percentage was calculated as the percent relative to the expression of GFP in untreated condition (Veh) which corresponds to 100%.

[1] = system: Balb/c mice with immobilized hind limb, gastrocnemius; assay: Immobilization-induced muscle atrophy; type: in vivo, mouse; settings: 10 mg/kg oral
Experimental: Wild type eight-weeks-old male Balb/c mice obtained from the vivarium Fundación Ciencia & Vida Chile (Santiago, Chile) were used. Mice were housed in independent plastic cages, fed ad libitum in a room maintained at 25° C. with a 12-h:12-h light:dark cycle.
Twenty-four hours before and during the 3 days of immobilization procedures, animals receive oral administration via feeding tubes (15 gauge) of vehicle (50% Polyethylene glycol 400 (Sigma-Aldrich P3265) in distilled water or 10 mg/kg of test compound formulated in vehicle.
One hindlimb is immobilized with a plastic stick placed over and under the limb and fixed with a medical adhesive bandage. Animals were daily monitored. The immobilization procedure prevents movement of the immobilized leg alone. After 3 days, the animals were sacrificed and gastrocnemius muscle is removed from both hindlimbs, the contralateral, non-immobilized leg being used as an internal control.
For in vivo measurements of protein synthesis, puromycin (Sigma-Aldrich, P8833) is prepared at 0.04 μmol/g body weight in a volume of 200 μl of PBS, and subsequently administered into the animals via intraperitoneal injection, 30 min prior to muscle collection.
Upon collection, muscles were immediately frozen in liquid nitrogen and stored at −80° C. […] Protein concentration in supernatants is determined using BCA Protein Assay Kit (Pierce). […]
Puromycin (12D10) (Merck Millipore), ATF4 (Abcam), Atrogin-1 (ECM Biosciences), MuRF-1 (Santa Cruz Biotechnology) and β-actin (Sigma-Aldrich) antibodies were used as primary antibodies. […] Quantification of protein bands is done by densitometry using ImageJ software.
Expression of ATF4 and the muscle atrophy markers, Atrogin-1 and MuRF-1, of gastrocnemius derived from mobilized and immobilized hind limbs of mice treated with vehicle or compound 58 are shown in FIG. 9C. […] The levels were normalized to β-actin expression and percentage is calculated as the percent relative to the expression of mobile hind limb from control mice (Vehicle) which corresponds to 100%. […]

## O=C(NN1CCN(C[C@@H](O)COc2ccc(Cl)c(F)c2)CC1)c1ccc2cc(Cl)ccc2n1 [Compound 58, (R)-6-chloro-N-(4-(3-(4-chloro-3-fluorophenoxy)-2-hydroxypropyl)piperazin-1-yl)quinoline-2-carboxamide]
ATF4; 100 nM test compound, read-out: % ATF4 inhibition at 100 nM
  inhibition at 0.1 µM: 86.5%
ATF4; read-out: ATF4 inhbition IC50
  IC50: 5.7 nM
ATF4; 1 μM test compound, read-out: % ATF4 inhibition at 1 μM
  inhibition at 1 µM: 97.6%
CHO cells
  expression of GFP after transient transfection: increased expression of GFP
[1]; vs vehicle (FIG. 9D)
  ATF4 expression in gastrocnemius: reduction
[1]; vs vehicle (FIG. 9E)
  Atrogin-1 expression in gastrocnemius: reduction
[1]; vs vehicle (FIG. 9F)
  MuRF-1 expression in gastrocnemius: reduction
